Reference: patent US20120101104A1, “TOPICAL GEL COMPOSITIONS AND METHODS OF USE” (GALDERMA S.A., priority 2010, published 2012)

How the values were obtained:
[1] = Microscopic observation of gel compositions for methylparaben crystalline particles; type: physicochemical
Description: Microscopic observations were performed on additional representative batches of brimonidine topical gel compositions and placebo gel compositions containing 1.25% (w/w) carbomer, POBM and other ingredients. The observations have been done on one tube of each batch, with the microscope Axiolab DRBKT Zeiss no. 023733.01 with a camera ICC Zeiss or the microscope Olympus BX60. The microscopic observations were done at 5° C. and room temperature.
Numerous formulations with different ingredients and varying concentrations of the ingredients were made and tested for the presence of the paraben crystals by microscopic observations. The microbiological quality of the formulations was also analyzed by using acceptance-test criteria in preservative-efficacy testing (PET) in the United States Pharmacopeia (USP) and the European Pharmacopoeia (EP).

[2] = Methylparaben concentration in supernatant after centrifugation of a batch with crystals; type: physicochemical
Description: Centrifugation was performed on the batch to collect crystals at the bottom of the centrifuge tube, thus removing them from the supernatant.

Row | SMILES | crystalline particles in formulation ([1]; methylparaben replaced with Na POBM at 0.3% (w/w)) | supernatant methylparaben as share of the 0.3% (w/w) in the original formulation ([2]; batch originally containing 0.3% (w/w) methylparaben) | methylparaben concentration in the supernatant ([2]; batch originally containing 0.3% (w/w) methylparaben with crystals, after centrifugation) | recrystallization in formulation ([1]; 0.3% (w/w) POBM, addition of 0.1% of EDTA)
1 | COC(=O)c1ccc([O-])cc1.[Na+] [Na POBM] | crystalline particles of Na POBM were still observed | – | – | –
2 | COC(=O)c1ccc(O)cc1 [methylparaben] | – | about 66% | about 0.2 % (w/w) | immediate recrystallization
